Reference: PubChem BioAssay (NCI)
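Cultured in 96-well plates, cells were exposed to test compound for 48 hours across five concentrations. GI50 = concentration required for 50% inhibition of growth. TGI is the concentration that stops growth completely.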

Legend:
Test in all cases: growth of human tumour cells (NCI), 48 h
HCC-2998 colon = test system: HCC-2998 colon
HCT-116 colon = test system: HCT-116 colon
HCT-15 colon = test system: HCT-15 colon
HOP-62 NSCLC = test system: HOP-62 NSCLC
HOP-92 NSCLC = test system: HOP-92 NSCLC
IGROV1 ovarian = test system: IGROV1 ovarian
K-562 leukemia = test system: K-562 leukemia
KM12 colon = test system: KM12 colon
MDA-MB-435 = test system: MDA-MB-435
U251 CNS = test system: U251 CNS

## CN(C)N=Nc1nn(C(=O)Nc2ccc(Cc3ccccc3)cc2)c2ccccc12
HCC-2998 colon
  GI50: 0.802 µM
  TGI: > 47.7 µM
HCT-116 colon
  GI50: > 100 µM
  TGI: > 100 µM
HCT-15 colon
  GI50: 0.396 µM
  TGI: > 100 µM
HOP-62 NSCLC
  GI50: > 100 µM
  TGI: > 100 µM
HOP-92 NSCLC
  GI50: 6.47 µM
  TGI: > 100 µM
IGROV1 ovarian
  GI50: 43.5 µM
  TGI: > 100 µM
K-562 leukemia
  GI50: 0.0373 µM
  TGI: > 100 µM
KM12 colon
  GI50: 0.312 µM
  TGI: > 100 µM
MDA-MB-435
  TGI: > 100 µM
U251 CNS
  TGI: > 100 µM
